In US9534059B2, “TIKI inhibitors” (Children's Medical Center Corporation, priority 2012, dated 2017):

Tests used:
[1] = biological target: T1, Tiki1 (Xenopus tropicalis, UniProt F6PTN1); test: Whole mount in situ hybridization of organizer gene expression in MO-injected embryos (FIGS. 3D and 3F); type: in vivo
T1 construct: Thus the endogenous Tiki1 in the Organizer acts in both Wnt-producing and Wnt-responding cells; endogenous in cells; host or cells: Xenopus embryos (dorsal blastomeres / organizer)
T1 sequence (F6PTN1 24-480): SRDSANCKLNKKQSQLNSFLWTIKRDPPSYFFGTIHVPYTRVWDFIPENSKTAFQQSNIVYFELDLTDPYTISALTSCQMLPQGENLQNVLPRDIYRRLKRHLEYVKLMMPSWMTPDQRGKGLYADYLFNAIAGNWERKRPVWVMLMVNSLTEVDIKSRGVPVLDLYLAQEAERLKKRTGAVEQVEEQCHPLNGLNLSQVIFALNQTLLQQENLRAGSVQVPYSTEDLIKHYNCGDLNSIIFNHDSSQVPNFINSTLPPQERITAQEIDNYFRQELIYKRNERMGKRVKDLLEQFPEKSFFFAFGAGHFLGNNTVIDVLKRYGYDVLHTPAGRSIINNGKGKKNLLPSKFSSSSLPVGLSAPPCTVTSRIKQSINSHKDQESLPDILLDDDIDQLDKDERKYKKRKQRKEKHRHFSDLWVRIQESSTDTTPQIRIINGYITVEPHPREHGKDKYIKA
Description: (D) Tiki1 is required for the head organizer. Mid-gastrula embryos (stage 10.5-11) were examined by whole mount in situ hybridization.
(F) Tiki1MO reduces Goosecoid expression in prechordal plate at stage 13. 20 ng of control MO, Tiki1MO or Tiki1MO plus 50 pg of HA*Tiki1 mRNA were injected into two dorsal blastomeres at the 8-cell stage. Injected embryos were subjected to whole mount in situ hybridization with the Gsc probe at stage 13 (dorsal view with anterior up).
(§1) Procedures for embryo manipulation, reverse transcription PCR and in situ hybridization were performed as previously described (Tamai et al., 2000). The arrayed Xenopus tropicalis full length cDNAs (Voigt et al., 2005) were used for the screening as performed previously (Kato et al., 2002). cDNA pools (in the CS107 vector) that contain 96 independent clones were transcribed in vitro using SP6 polymerase, and the resulting mRNA pools were injected into the dorsal side of the embryo at 4-cell stage at the dose of 10 ng RNA/embryo. Injected embryos were scored at stage 30-31 for enlarged or diminished anterior development. The positive pools were divided into smaller pools and the same process was repeated till a single cDNA was identified.
(§2) The following morpholino oligonucleotides were used: Tiki1 MO: 5′-[…]-3′ (SEQ ID NO:33); standard control MO: 5′-[…]-3′ (SEQ ID NO:34) (Gene Tools, LLC). RT-PCR primers for XTiki1: Forward, 5′-[…]-3′(SEQ ID NO:35), Reverse, 5′-[…]-3′(SEQ ID NO:36); human TIKI1: Forward, 5′-[…]-3′(SEQ ID NO:37), Reverse, 5′-[…]-3′(SEQ ID NO:38); human TIKI2: Forward, 5′-[…]-3′(SEQ ID NO:39), Reverse, 5′-[…]-3′(SEQ ID NO:40).
Further, injection of Tiki1MO in two dorsal blastomeres of 8-cell stage embryos suppressed the expression of head organizer genes including Goosecoid (Gsc), Lim1, Otx2, and Dkk1 in gastrula stage embryos (stages 10.5-11) (FIG. 3D and Table 1). […] HA*Tiki1 mRNA injection rescued the effect of Tiki1MO on all head organizer genes examined (FIG. 3D and Table 1). […] Consistently, Tiki1 inhibited Xwnt8 posterizing effect when both were co-expressed dorsally via injected plasmids, which zygotically express Tiki1 and Xwnt8, respectively, after mid-blastula transition (FIG. 3H).

[2] = biological target: T1, Tiki1; test: Anterior neural marker expression at stage 16 in MO-injected embryos, whole mount in situ hybridization (FIG. 3I); type: in vivo
Description: (I) Tiki1 is required for anterior neural patterning. 20 ng of control MO or Tiki1MO plus fluorescein dextran (FLD, as a lineage tracer) were injected into one dorsal blastomere at the 8-cell stage. 50 pg of HA*Tiki1 mRNA were injected into the dorsal-animal blastomeres at the 4-cell stage in rescue experiments. Injected embryos were collected at stage 16 and subjected for whole mount in situ hybridization. Expression of forebrain markers BF1 and Otx2 (not shown) and the midbrain marker Ent was reduced in the Tiki1MO-injected half and was rescued by HA*Tiki1.
as §1, §2
The fact that Tiki1 is specifically expressed in, and is required for function of, the head organizer implies that Tiki1 has a role in anterior neural patterning. Tiki1MO were injected with fluorescein dextran (FLD, as a lineage tracer) into one dorsal-animal blastomere at the 8-cell stage and analyzed expression of anterior neural markers at stage 16. Tiki1MO suppressed, in the injected half of the embryo, the expression of forebrain marker BF1 and Otx2 (FIG. 3I and Table 3). […] HA*Tiki1 mRNA injection rescued the expression of BF1, Otx2, and Ent in Tiki1MO-injected embryos (FIG. 3I and Table 3).

[3] = gene Chd, stage 10.5-11, 20 ng MO
[4] = gene Dkk1, stage 10.5-11, 20 ng MO
[5] = gene Gsc in prechordal plate, stage 13, 20 ng MO
[6] = gene Gsc, stage 10.5-11, 20 ng MO
[7] = gene Lim1, stage 10.5-11, 20 ng MO
[8] = gene Otx2, stage 10.5-11, 20 ng MO
[9] = gene Xnot, stage 10.5-11, 20 ng MO
[10] = gene Xnr3, stage 10.5-11, 20 ng MO

Tiki1 MO: morpholino antisense oligonucleotide against Tiki1, 5′-CCAAATGATTACCATCATAGCTCAG-3′ (SEQ ID NO:33) (all phosphorodiamidate morpholino (PMO))
Whole embryos displaying change in gene expression: Chd Absent, Percentage (%) [1, 3]: 0%
Whole embryos displaying change in gene expression: Chd NC (No Change), Percentage (%) [1, 3]: 64%
Whole embryos displaying change in gene expression: Chd Reduced, Percentage (%) [1, 3]: 36%
Whole embryos displaying change in gene expression: Dkk1 Absent, Percentage (%) [1, 4]: 25%
Whole embryos displaying change in gene expression: Dkk1 NC (No Change), Percentage (%) [1, 4]: 35%
Whole embryos displaying change in gene expression: Dkk1 Reduced, Percentage (%) [1, 4]: 40%
Whole embryos displaying change in gene expression: Gsc st.13 Absent, Percentage (%) [1, 5]: 35%
Whole embryos displaying change in gene expression: Gsc st.13 NC (No Change), Percentage (%) [1, 5]: 33%
Whole embryos displaying change in gene expression: Gsc st.13 Reduced, Percentage (%) [1, 5]: 32%
Whole embryos displaying change in gene expression: Gsc Absent, Percentage (%) [1, 6]: 0%
Whole embryos displaying change in gene expression: Gsc NC (No Change), Percentage (%) [1, 6]: 34%
Whole embryos displaying change in gene expression: Gsc Reduced, Percentage (%) [1, 6]: 66%
Whole embryos displaying change in gene expression: Lim1 Absent, Percentage (%) [1, 7]: 28%
Whole embryos displaying change in gene expression: Lim1 NC (No Change), Percentage (%) [1, 7]: 18%
Whole embryos displaying change in gene expression: Lim1 Reduced, Percentage (%) [1, 7]: 54%
Whole embryos displaying change in gene expression: Otx2 Absent, Percentage (%) [1, 8]: 7%
Whole embryos displaying change in gene expression: Otx2 NC (No Change), Percentage (%) [1, 8]: 33%
Whole embryos displaying change in gene expression: Otx2 Reduced, Percentage (%) [1, 8]: 60%
Whole embryos displaying change in gene expression: Xnot Absent, Percentage (%) [1, 9]: 0%
Whole embryos displaying change in gene expression: Xnot NC (No Change), Percentage (%) [1, 9]: 87%
Whole embryos displaying change in gene expression: Xnot Reduced, Percentage (%) [1, 9]: 13%
Whole embryos displaying change in gene expression: Xnr3 Absent, Percentage (%) [1, 10]: 0%
Whole embryos displaying change in gene expression: Xnr3 NC (No Change), Percentage (%) [1, 10]: 93%
Whole embryos displaying change in gene expression: Xnr3 Reduced, Percentage (%) [1, 10]: 7%
Whole embryos displaying change in gene expression: BF1 Absent, Percentage (%) ([2]; gene BF1, stage 16): 63%
Whole embryos displaying change in gene expression: BF1 NC (No Change), Percentage (%) ([2]; gene BF1, stage 16): 14%
Whole embryos displaying change in gene expression: BF1 Reduced, Percentage (%) ([2]; gene BF1, stage 16): 23%
Whole embryos displaying change in gene expression: BF1 increased, Percentage (%) ([2]; gene BF1, stage 16): 0%
Whole embryos displaying change in gene expression: En-2 Absent, Percentage (%) ([2]; gene En-2, stage 16): 40%
Whole embryos displaying change in gene expression: En-2 NC (No Change), Percentage (%) ([2]; gene En-2, stage 16): 35%
Whole embryos displaying change in gene expression: En-2 Reduced, Percentage (%) ([2]; gene En-2, stage 16): 25%
Whole embryos displaying change in gene expression: En-2 increased, Percentage (%) ([2]; gene En-2, stage 16): 0%
Whole embryos displaying change in gene expression: HoxB9 Absent, Percentage (%) ([2]; gene HoxB9, stage 16): 0%
Whole embryos displaying change in gene expression: HoxB9 NC (No Change), Percentage (%) ([2]; gene HoxB9, stage 16): 100%
Whole embryos displaying change in gene expression: HoxB9 Reduced, Percentage (%) ([2]; gene HoxB9, stage 16): 0%
Whole embryos displaying change in gene expression: HoxB9 increased, Percentage (%) ([2]; gene HoxB9, stage 16): 0%
Whole embryos displaying change in gene expression: Otx2 Absent, Percentage (%) ([2]; gene Otx2, stage 16): 35%
Whole embryos displaying change in gene expression: Otx2 NC (No Change), Percentage (%) ([2]; gene Otx2, stage 16): 35%
Whole embryos displaying change in gene expression: Otx2 Reduced, Percentage (%) ([2]; gene Otx2, stage 16): 30%
Whole embryos displaying change in gene expression: Otx2 increased, Percentage (%) ([2]; gene Otx2, stage 16): 0%
